Where a name gives a salt, the structure may show the parent alone. Read-outs that look alike come from different tables or passages of the source.
What was measured:
[1] = system: NCI-H292 lung cancer cells; assay: FDA drug screening, complete media vs cholesterol-free media without statin (TABLE 1); format: cell-based, human
[2] = system: NCI-H292 lung cancer cells; assay: FDA drug screening, complete media vs cholesterol-free media with simvastatin (TABLE 2); format: cell-based, human
[3] = Complete minus Cholesterol-free, >0 enhanced anti-cancer activity, about 0 neutral, <0 antagonist
[4] = NCI-H292 cells, cholesterol-free media without statin, FDA drug library screen
[5] = NCI-H292 cells, complete media, FDA drug library screen
[6] = NCI-H292 cells, drug in cholesterol-free media with simvastatin 0.04 μM
[7] = NCI-H292 cells, drug in complete media
[8] = complete media vs cholesterol-free media + simvastatin (0.04 μM), >0 enhanced anti-cancer activity, about 0 neutral, <0 antagonist
[9] = NCI-H292 cells, cholesterol-free media without statin
[10] = complete vs cholesterol-free media, greater than 0 enhanced anti-cancer activity, about 0 neutral, below 0 antagonists
[11] = complete vs cholesterol-free media, >0 enhanced anti-cancer activity, about 0 neutral, <0 antagonist
[12] = NCI-H292 cells, cholesterol-free media with simvastatin 0.04 μM, FDA drug library screen (TABLE 2)
[13] = NCI-H292 cells, complete media, FDA drug library screen (TABLE 2)
[14] = complete media minus cholesterol-free media + simvastatin (0.04 μM), >0 enhanced anti-cancer activity, about 0 neutral, <0 antagonist
[15] = NCI-H292 cells, FDA library drug in cholesterol-free media with simvastatin 0.04 μM
[16] = NCI-H292 cells, FDA library drug in complete media
[17] = complete media minus cholesterol-free media + simvastatin, >0 enhanced anti-cancer activity, about 0 neutral, <0 antagonist
[18] = Complete minus Cholesterol-free, greater than 0 enhanced anti-cancer activity, about 0 neutral, below 0 antagonist
[19] = NCI-H292 cells, FDA drug library screen, cholesterol-free media without statin
[20] = NCI-H292 cells, FDA drug library screen, complete media
[21] = Complete minus Cholesterol-free, greater than 0 enhanced anti-cancer activity, about 0 neutral, below 0 antagonists
[22] = NCI-H292 cells in cholesterol-free media without statin
[23] = NCI-H292 cells in complete media
[24] = NCI-H292 cells, FDA drug library screen, cholesterol-free media with simvastatin 0.04 μM
[25] = Complete minus Cholesterol-free, […]
[26] = complete media minus cholesterol-free media + simvastatin (0.04 μM), […]

Gadobutrol
Difference [1, 3]: 0.01 | Cholesterol-free [1, 4]: 0.939 | Complete [1, 5]: 0.9511 | Cholesterol-free media + simvastatin (0.04 μM) [2, 6]: 1.273 | Complete Media [2, 7]: 1.022 | Difference [2, 8]: −0.25

O=C(O)CCCC[C@@H]1SC[C@@H]2NC(=O)N[C@@H]21 [Biotin]
Cholesterol-free [1]: 1.067 | Complete [1]: 0.6067 | Difference [1]: −0.46 | Cholesterol-free media + simvastatin (0.04 μM) [2]: 1.06 | Complete Media [2]: 0.9767 | Difference [2]: −0.08

O=C(O)[C@@H](S)[C@@H](S)C(=O)O [Succimer]
Cholesterol-free [1, 9]: 1.406 | Complete ([1]; NCI-H292 cells, complete media): 0.9576 | Difference [1, 10]: −0.45 | Cholesterol-free media + simvastatin (0.04 μM) [2, 6]: 1.252 | Complete Media [2, 7]: 1.035 | Difference [2, 8]: −0.22

CC(=O)OCC(=O)[C@@]1(O)CC[C@H]2[C@@H]3CCC4=CC(=O)C=C[C@]4(C)[C@@]3(Cl)[C@@H](Cl)C[C@@]21C [Dichlorisone acetate]
Cholesterol-free [1, 4]: 0.8532 | Complete [1, 5]: 1.096 | Difference [1, 11]: 0.24 | Cholesterol-free media + simvastatin (0.04 μM) [2, 12]: 0.7442 | Complete Media [2, 13]: 0.6906 | Difference [2, 14]: −0.05

COc1ccc(C(CN(C)C)C2(O)CCCCC2)cc1 (centres unmarked) [Venlafaxine (hydrochloride)]
Cholesterol-free [1, 9]: 1.049 | Complete ([1]; NCI-H292 cells, complete media): 0.7326 | Difference ([1]; complete vs cholesterol-free media, […]): −0.32 | Cholesterol-free media + simvastatin (0.04 μM) [2, 15]: 1.551 | Complete Media [2, 16]: 1.023 | Difference ([2]; complete media vs cholesterol-free media + simvastatin (0.04 μM), […]): −0.53

CC(C)(C)[C@@H]1NC(=O)O[C@@H]2CCC[C@H]2OC/C=C/C(F)(F)c2nc3ccccc3nc2O[C@@H]2C[C@@H](C(=O)N[C@]3(C(=O)NS(=O)(=O)C4(C)CC4)C[C@H]3C(F)F)N(C2)C1=O [Glecaprevir]
Difference [1, 3]: −0.04 | Cholesterol-free [1, 4]: 0.8867 | Complete [1, 5]: 0.8478 | Cholesterol-free media + simvastatin (0.04 μM) ([2]; NCI-H292 cells, cholesterol-free media with simvastatin 0.04 μM, cell growth value in FDA drug screen): 1.021 | Complete Media ([2]; NCI-H292 cells, complete media, cell growth value in FDA drug screen): 1.126 | Difference [2, 17]: 0.11

Nc1cc(N2CCCCC2)nc(N)[n+]1[O-] [Minoxidil]
Difference [1, 3]: −0.20 | Cholesterol-free [1, 9]: 1.202 | Complete ([1]; NCI-H292 cells, complete media): 1.002 | Cholesterol-free media + simvastatin (0.04 μM) [2, 15]: 1.841 | Difference [2, 8]: −0.68

Cc1nc(Nc2ncc(C(=O)Nc3c(C)cccc3Cl)s2)cc(N2CCN(CCO)CC2)n1 [Dasatinib (hydrochloride)]
Difference [1, 18]: −0.10 | Cholesterol-free [1, 19]: 0.3831 | Complete [1, 20]: 0.2841 | Cholesterol-free media + simvastatin (0.04 μM) [2, 12]: 0.2818 | Complete Media [2, 13]: 0.268 | Difference [2, 14]: −0.01

Iproniazid (phosphate)
Difference [1, 3]: −0.26 | Complete ([1]; NCI-H292 cells, complete media): 0.8468 | Difference [2, 8]: −0.09

CC(=O)Oc1ccccc1C(=O)O [Aspirin]
Cholesterol-free [1, 9]: 1.474 | Complete ([1]; NCI-H292 cells, complete media): 1.02 | Difference [1, 10]: −0.45 | Cholesterol-free media + simvastatin (0.04 μM) [2, 6]: 1.19 | Complete Media [2, 7]: 0.9812 | Difference [2, 8]: −0.21

Clopidogrel (hydrogen sulfate)
Difference [1, 18]: −0.10 | Cholesterol-free [1, 19]: 1.157 | Complete [1, 20]: 1.053 | Cholesterol-free media + simvastatin (0.04 μM) [2, 6]: 1.048 | Complete Media [2, 7]: 0.8246 | Difference [2, 8]: −0.22

CC(C)(CO)C(O)C(=O)NCCCO (racemic) [DL-Panthenol]
Difference [1, 21]: −0.82 | Cholesterol-free [1, 22]: 1.816 | Complete [1, 23]: 0.9995 | Cholesterol-free media + simvastatin (0.04 μM) [2, 24]: 1.177 | Complete Media [2, 20]: 1.049 | Difference [2, 8]: −0.13

Pefloxacin (mesylate)
Cholesterol-free [1, 9]: 1.183 | Complete ([1]; NCI-H292 cells, complete media): 0.8627 | Difference [1, 10]: −0.32 | Cholesterol-free media + simvastatin (0.04 μM) [2, 6]: 1.02 | Complete Media [2, 7]: 0.8577 | Difference [2, 8]: −0.16

Cc1ncc([N+](=O)[O-])n1CC(O)CN1CCOCC1 (stereo not drawn) [Morinidazole (R enantiomer)]
Difference [1, 3]: −0.04 | Cholesterol-free [1, 4]: 1.104 | Complete [1, 5]: 1.064 | Cholesterol-free media + simvastatin (0.04 μM) [2, 24]: 1.178 | Complete Media [2, 20]: 1.022 | Difference [2, 8]: −0.16

CC(C)(C)NCC(O)COc1cccc2c1CCC(=O)N2 (centres unmarked) [Carteolol hydrochloride]
Difference [1, 18]: −0.19 | Cholesterol-free [1, 19]: 1.114 | Complete [1, 20]: 0.9284 | Cholesterol-free media + simvastatin (0.04 μM) [2, 6]: 1.125 | Complete Media [2, 7]: 0.8865 | Difference [2, 8]: −0.24

COc1ccc(/C=C/C(=O)Nc2ccccc2C(=O)O)cc1OC [Tranilast]
Difference [1, 3]: −0.27 | Cholesterol-free [1, 9]: 0.8255 | Complete ([1]; NCI-H292 cells, complete media): 0.5543 | Cholesterol-free media + simvastatin (0.04 μM) [2, 6]: 1.221 | Complete Media [2, 7]: 1.04 | Difference [2, 8]: −0.18

C[C@H](CCC(=O)O)[C@H]1CC[C@H]2[C@@H]3CC[C@@H]4C[C@H](O)CC[C@]4(C)[C@H]3C[C@H](O)[C@]12C [Deoxycholic acid]
Difference [1, 21]: −0.65 | Cholesterol-free [1, 22]: 1.683 | Complete [1, 23]: 1.028 | Cholesterol-free media + simvastatin (0.04 μM) [2, 15]: 1.379 | Complete Media [2, 16]: 0.931 | Difference [2, 8]: −0.45

CC/C=C\C/C=C\C/C=C\C/C=C\C/C=C\CCCC(=O)O [Eicosapentaenoic Acid]
Difference [1, 18]: −0.10 | Cholesterol-free [1, 19]: 1.072 | Complete [1, 20]: 0.969 | Cholesterol-free media + simvastatin (0.04 μM) [2, 24]: 1.13 | Complete Media [2, 20]: 1.471 | Difference [2, 17]: 0.34

CC(C)[C@]12O[C@H]1[C@@H]1O[C@]13[C@]1(O[C@H]1C[C@H]1C4=C(CC[C@@]13C)C(=O)OC4)[C@@H]2O [Triptolide]
Difference [1, 25]: −0.01 | Cholesterol-free [1, 4]: 0.04113 | Complete [1, 5]: 0.03049 | Cholesterol-free media + simvastatin (0.04 μM) [2, 12]: 0.007136 | Complete Media [2, 13]: −0.02177 | Difference [2, 26]: −0.03

O=c1c(-c2ccc(O)cc2)coc2cc(O)ccc12 [Daidzein]
Difference [1, 3]: −0.02 | Cholesterol-free [1, 4]: 1.1 | Complete [1, 5]: 1.082 | Cholesterol-free media + simvastatin (0.04 μM) [2, 24]: 1.306 | Complete Media [2, 20]: 1.614 | Difference [2, 17]: 0.31

N#C/C(=C1/SC[C@@H](c2ccc(Cl)cc2Cl)S1)n1ccnc1 [Luliconazole]
Difference [1, 21]: −0.58 | Cholesterol-free [1, 22]: 1.532 | Complete [1, 23]: 0.9562 | Cholesterol-free media + simvastatin (0.04 μM) [2, 24]: 0.3531 | Complete Media [2, 20]: 0.8464 | Difference [2, 17]: 0.49

CC/C(=C(\c1ccccc1)c1ccc(OCCN(C)C)cc1)c1ccccc1 [Tamoxifen]
Difference [1, 3]: 0.05 | Cholesterol-free [1, 4]: 0.6611 | Complete [1, 5]: 0.7069 | Cholesterol-free media + simvastatin (0.04 μM) [2, 24]: 0.7526 | Complete Media [2, 20]: 1.084 | Difference [2, 17]: 0.33

NC(=O)CN1CC(O)CC1=O (centres unmarked) [Oxiracetam]
Difference [1, 3]: −0.22 | Cholesterol-free [1, 9]: 1.104 | Complete ([1]; NCI-H292 cells, complete media): 0.8826 | Cholesterol-free media + simvastatin (0.04 μM) [2, 15]: 1.234 | Complete Media [2, 16]: 0.9456 | Difference [2, 8]: −0.29

C[C@H]1O[C@@H](O[C@H]2[C@@H](O)C[C@H](O[C@H]3[C@@H](O)C[C@H](O[C@H]4CC[C@@]5(C)[C@H](CC[C@@H]6[C@@H]5CC[C@]5(C)[C@@H](C7=CC(=O)OC7)CC[C@]65O)C4)O[C@@H]3C)O[C@@H]2C)C[C@H](O)[C@@H]1O [Digitoxin]
Difference [1, 25]: 0.04 | Cholesterol-free [1, 4]: −0.01931 | Complete [1, 5]: 0.0198 | Cholesterol-free media + simvastatin (0.04 μM) [2, 12]: 0.01053 | Complete Media [2, 13]: −0.02212 | Difference [2, 26]: −0.03

NC(=O)N1c2ccccc2CC(=O)c2ccccc21 [Oxcarbazepine]
Cholesterol-free [1, 4]: 0.8341 | Complete [1, 5]: 1.538 | Difference [1, 11]: 0.70 | Cholesterol-free media + simvastatin (0.04 μM) [2, 15]: 1.305 | Complete Media [2, 16]: 0.9097 | Difference [2, 8]: −0.40

C[C@@H]1C[C@H]2[C@@H]3CCC4=CC(=O)C=C[C@]4(C)[C@@]3(F)[C@@H](O)C[C@]2(C)[C@H]1C(=O)CO [Desoximetasone]
Difference [1, 3]: −0.06 | Cholesterol-free [1, 4]: 0.8359 | Complete [1, 5]: 0.7716 | Cholesterol-free media + simvastatin (0.04 μM) [2, 12]: 0.8194 | Complete Media [2, 13]: 0.8184 | Difference [2, 14]: 0.00

CCCc1cc(=O)[nH]c(=S)[nH]1 [Propylthiouracil]
Difference [1, 3]: −0.23 | Cholesterol-free [1, 9]: 1.082 | Complete ([1]; NCI-H292 cells, complete media): 0.8473 | Cholesterol-free media + simvastatin (0.04 μM) [2, 12]: 0.9529 | Complete Media [2, 13]: 0.939 | Difference [2, 14]: −0.01

COC(=O)c1ccc2c(c1)NC(=O)/C2=C(\Nc1ccc(N(C)C(=O)CN2CCN(C)CC2)cc1)c1ccccc1 [Nintedanib esylate]
Difference [1, 3]: 0.02 | Cholesterol-free [1, 4]: 0.5114 | Complete [1, 5]: 0.5279 | Cholesterol-free media + simvastatin (0.04 μM) [2, 12]: 0.7218 | Complete Media [2, 13]: 0.6577 | Difference [2, 14]: −0.06

CC(C)OC(=O)[C@H](C)N[P@](=O)(CO[C@H](C)Cn1cnc2c(N)ncnc21)Oc1ccccc1 [Tenofovir alafenamide]
Cholesterol-free [1]: 1.21 | Complete [1]: 0.7227 | Difference [1]: −0.49 | Cholesterol-free media + simvastatin (0.04 μM) [2]: 0.7269 | Complete Media [2]: 0.65 | Difference [2]: −0.08

From patent US20250144067A1, “PERSONALIZED STARVATION THERAPY FOR CANCER” (Faeth Therapeutics, Inc., priority 2021, published 2025)
